Columns and labels:
OmpX = OmpX (Escherichia coli, UniProt P0A917); assay: 2D NMR control with OmpX in LDAO micelles; design: species or system bacterial; conditions: up to 5 mM GAP; control for nonspecific binding
Method: (a) (left) 2D-[^15N,^1H]-TROSY NMR spectra of 400 µM ^2H,^15N-labeled OmpX in LDAO micelles in 20 mM sodium phosphate, pH6.0, 50 mM NaCl, 0.5 mM EDTA and the indicated concentrations of D-GAP at 30 °C and 1.2 GHz magnetic field. (right) 2D-projections along the ^1H dimension of the 2D-spectra shown on (left). […] (right) Relative NMR peak intensities derived from the data in (left) and (middle). Buffer: 10 mM Na-phosphate pH7.0, 20 mM NaCl, 7% (v/v) D2O. […] (right) 150 mM MgCl2 was titrated into 15 mM potassium phosphate (Pi). Buffer conditions for all experiments were: 10 mM HEPES pH7.0, 20 mM NaCl.

OEP21 = OEP21 (Pisum sativum, UniProt Q9SM57); assay: CD-detected thermal melting of OEP21 in presence of metabolites; type: binding, garden pea; design: made in house; conditions: for raw CD / rel CD: 500 uM; for Melting point: ED Fig. 4a
Sequence of OEP21 (Q9SM57 whole entry): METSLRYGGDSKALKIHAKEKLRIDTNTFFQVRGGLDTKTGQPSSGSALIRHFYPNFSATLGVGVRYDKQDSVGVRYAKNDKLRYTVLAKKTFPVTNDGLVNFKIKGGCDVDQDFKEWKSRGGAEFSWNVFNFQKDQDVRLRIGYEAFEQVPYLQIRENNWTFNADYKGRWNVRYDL

Sequence of OmpX (P0A917 24-171): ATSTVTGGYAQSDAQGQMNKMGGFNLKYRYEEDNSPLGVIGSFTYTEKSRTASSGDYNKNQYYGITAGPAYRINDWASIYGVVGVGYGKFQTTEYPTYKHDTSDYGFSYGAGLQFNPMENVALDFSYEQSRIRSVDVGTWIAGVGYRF

Compound: O=C[C@H](O)COP(=O)(O)O [GAP, D-glyceraldehyde-3-phosphate]
- effect on 2D-NMR spectra of OmpX (in words) (OmpX): did not observe any effect
- raw CD (OEP21; 22.5 °C): -23.3707
- rel CD (OEP21; 22.5 °C): 0.97
- raw CD (OEP21; 23 °C): -23.5919
- rel CD (OEP21; 23 °C): 0.9806
- raw CD (OEP21; 23.5 °C): -24.399
- rel CD (OEP21; 23.5 °C): 1.019
- raw CD (OEP21; 24 °C): -24.3596
- rel CD (OEP21; 24 °C): 1.017
- raw CD (OEP21; 25 °C): -24.3798
- rel CD (OEP21; 25 °C): 1.018
- raw CD (OEP21; 26 °C): -24.239
- rel CD (OEP21; 26 °C): 1.011
- raw CD (OEP21; 27 °C): -24.36
- rel CD (OEP21; 27 °C): 1.017
- raw CD (OEP21; 28 °C): -24.2279
- rel CD (OEP21; 28 °C): 1.011
- raw CD (OEP21; 28.5 °C): -24.3095
- rel CD (OEP21; 28.5 °C): 1.015
- raw CD (OEP21; 29 °C): -23.5401
- rel CD (OEP21; 29 °C): 0.9781
- raw CD (OEP21; 30 °C): -23.385
- rel CD (OEP21; 30 °C): 0.9707
- raw CD (OEP21; 31 °C): -24.0555
- rel CD (OEP21; 31 °C): 1.003
- raw CD (OEP21; 32 °C): -24.3068
- rel CD (OEP21; 32 °C): 1.015
- raw CD (OEP21; 33 °C): -24.4089
- rel CD (OEP21; 33 °C): 1.019
- raw CD (OEP21; 34 °C): -23.805
- rel CD (OEP21; 34 °C): 0.9907
- raw CD (OEP21; 35 °C): -24.5097
- rel CD (OEP21; 35 °C): 1.024
- raw CD (OEP21; 36 °C): -24.0481
- rel CD (OEP21; 36 °C): 1.002
- raw CD (OEP21; 37 °C): -23.8199
- rel CD (OEP21; 37 °C): 0.9914
- raw CD (OEP21; 38 °C): -23.8252
- rel CD (OEP21; 38 °C): 0.9917
- raw CD (OEP21; 39 °C): -23.7051
- rel CD (OEP21; 39 °C): 0.986
- raw CD (OEP21; 68 °C): -6.585
- rel CD (OEP21; 68 °C): 0.1707
- raw CD (OEP21; 68.5 °C): -6.193
- rel CD (OEP21; 68.5 °C): 0.1521
- raw CD (OEP21; 69 °C): -6.288
- rel CD (OEP21; 69 °C): 0.1566
- raw CD (OEP21; 70 °C): -5.958
- rel CD (OEP21; 70 °C): 0.1409
- raw CD (OEP21; 70.5 °C): -5.84
- rel CD (OEP21; 70.5 °C): 0.1352
- raw CD (OEP21; 71 °C): -5.586
- rel CD (OEP21; 71 °C): 0.1232
- raw CD (OEP21; 71.5 °C): -5.682
- rel CD (OEP21; 71.5 °C): 0.1277
- raw CD (OEP21; 72 °C): -5.192
- rel CD (OEP21; 72 °C): 0.1044
- raw CD (OEP21; 73 °C): -5.167
- rel CD (OEP21; 73 °C): 0.1032
- raw CD (OEP21; 74 °C): -4.493
- rel CD (OEP21; 74 °C): 0.07111
- raw CD (OEP21; 74.5 °C): -4.638
- rel CD (OEP21; 74.5 °C): 0.078
- raw CD (OEP21; 75 °C): -4.942
- rel CD (OEP21; 75 °C): 0.09249
- raw CD (OEP21; 75.5 °C): -4.618
- rel CD (OEP21; 75.5 °C): 0.07706
- raw CD (OEP21; 76 °C): -4.509
- rel CD (OEP21; 76 °C): 0.07187
- raw CD (OEP21; 77 °C): -4.747
- rel CD (OEP21; 77 °C): 0.0832
- raw CD (OEP21; 77.5 °C): -4.466
- rel CD (OEP21; 77.5 °C): 0.06981
- raw CD (OEP21; 78 °C): -4.843
- rel CD (OEP21; 78 °C): 0.08778
- raw CD (OEP21; 78.5 °C): -4.206
- rel CD (OEP21; 78.5 °C): 0.05742
- raw CD (OEP21; 79 °C): -3.995
- rel CD (OEP21; 79 °C): 0.0474
- raw CD (OEP21; 79.5 °C): -4.497
- rel CD (OEP21; 79.5 °C): 0.07129
- raw CD (OEP21; 80 °C): -4.058
- rel CD (OEP21; 80 °C): 0.05036
- raw CD (OEP21; 81 °C): -4.059
- rel CD (OEP21; 81 °C): 0.05042
- raw CD (OEP21; 82 °C): -4.217
- rel CD (OEP21; 82 °C): 0.05795
- raw CD (OEP21; 82.5 °C): -4.026
- rel CD (OEP21; 82.5 °C): 0.04886
- raw CD (OEP21; 83 °C): -4.494
- rel CD (OEP21; 83 °C): 0.07116
- raw CD (OEP21; 83.5 °C): -4.549
- rel CD (OEP21; 83.5 °C): 0.07377
- raw CD (OEP21; 84 °C): -4.1838
- rel CD (OEP21; 84 °C): 0.05637
- raw CD (OEP21; 85 °C): -3.693
- rel CD (OEP21; 85 °C): 0.03299
- raw CD (OEP21; 86 °C): -3.539
- rel CD (OEP21; 86 °C): 0.02569
- raw CD (OEP21; 87 °C): -3.736
- rel CD (OEP21; 87 °C): 0.03505
- raw CD (OEP21; 87.5 °C): -3.636
- rel CD (OEP21; 87.5 °C): 0.03029
- raw CD (OEP21; 88 °C): -3.641
- rel CD (OEP21; 88 °C): 0.03053
- raw CD (OEP21; 88.5 °C): -3.975
- rel CD (OEP21; 88.5 °C): 0.04642
- raw CD (OEP21; 89 °C): -3.567
- rel CD (OEP21; 89 °C): 0.02702
- raw CD (OEP21; 90 °C): -3.821
- rel CD (OEP21; 90 °C): 0.03908
- raw CD (OEP21; 90.5 °C): -3.627
- rel CD (OEP21; 90.5 °C): 0.02984
- raw CD (OEP21; 91 °C): -4.011
- rel CD (OEP21; 91 °C): 0.04814
- raw CD (OEP21; 91.5 °C): -3.609
- rel CD (OEP21; 91.5 °C): 0.02901
- raw CD (OEP21; 92 °C): -3.4371
- rel CD (OEP21; 92 °C): 0.02081
- raw CD (OEP21; 93 °C): -3.657
- rel CD (OEP21; 93 °C): 0.03128
- raw CD (OEP21; 94 °C): -3.717
- rel CD (OEP21; 94 °C): 0.03414
- raw CD (OEP21; 95 °C): -3.854
- rel CD (OEP21; 95 °C): 0.04065
- raw CD (OEP21; 96 °C): -3.335
- rel CD (OEP21; 96 °C): 0.01596
- raw CD (OEP21; 97 °C): -3.649
- rel CD (OEP21; 97 °C): 0.0309
- raw CD (OEP21; 98 °C): -3.661
- rel CD (OEP21; 98 °C): 0.03146
- raw CD (OEP21; 99 °C): -3.437
- rel CD (OEP21; 99 °C): 0.0208
- raw CD (OEP21; 100 °C): -3.04
- rel CD (OEP21; 100 °C): 0.001918
- Melting point (OEP21; OEP21 with 0.5 mM metabolite, CD at 215 nm, Apo 58.5): 59.2 ｡C
- Melting point (OEP21; OEP21 with 1 mM GAP): 60.2 ｡C
